In PubChem BioAssay (NCI):
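Compound exposure: 48 hours, 5 concentrations, 96-well plates. TGI: concentration producing complete growth inhibition.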

Key:
Test in all cases: NCI tumour cell line growth inhibition, 48 h
786-0 renal = test system: 786-0 renal
A498 renal = test system: A498 renal
HCT-116 colon = test system: HCT-116 colon
HOP-92 NSCLC = test system: HOP-92 NSCLC
IGROV1 ovarian = test system: IGROV1 ovarian
KM12 colon = test system: KM12 colon
MDA-MB-435 = test system: MDA-MB-435
MDA-N = test system: MDA-N
MOLT-4 leukemia = test system: MOLT-4 leukemia
NCI-H226 lung = test system: NCI-H226 lung
OVCAR-4 ovarian = test system: OVCAR-4 ovarian
OVCAR-8 ovarian = test system: OVCAR-8 ovarian
RXF 393 renal = test system: RXF 393 renal
SF-539 CNS = test system: SF-539 CNS
SK-MEL-2 melanoma = test system: SK-MEL-2 melanoma
SNB-19 CNS = test system: SNB-19 CNS
SNB-75 CNS = test system: SNB-75 CNS
SW-620 colon = test system: SW-620 colon
T-47D breast = test system: T-47D breast
UACC-257 melanoma = test system: UACC-257 melanoma
UACC-62 melanoma = test system: UACC-62 melanoma
A549 NSCLC = test system: A549 NSCLC
ACHN renal = test system: ACHN renal
CAKI-1 renal = test system: CAKI-1 renal
CCRF-CEM leukemia = test system: CCRF-CEM leukemia
COLO 205 colon = test system: COLO 205 colon
DU-145 prostate = test system: DU-145 prostate
EKVX NSCLC = test system: EKVX NSCLC
HCC-2998 colon = test system: HCC-2998 colon
HCT-15 colon = test system: HCT-15 colon
HL-60(TB) leukemia = test system: HL-60(TB) leukemia
HOP-62 NSCLC = test system: HOP-62 NSCLC
HS 578T breast = test system: HS 578T breast
HT29 colon = test system: HT29 colon
K-562 leukemia = test system: K-562 leukemia
LOX IMVI melanoma = test system: LOX IMVI melanoma
M14 melanoma = test system: M14 melanoma
MALME-3M melanoma = test system: MALME-3M melanoma
MCF7 breast = test system: MCF7 breast
MDA-MB-231 breast = test system: MDA-MB-231 breast
NCI-H23 lung = test system: NCI-H23 lung
NCI-H460 lung = test system: NCI-H460 lung
NCI-H522 lung = test system: NCI-H522 lung
NCI/ADR-RES ovarian = test system: NCI/ADR-RES ovarian
OVCAR-3 ovarian = test system: OVCAR-3 ovarian
OVCAR-5 ovarian = test system: OVCAR-5 ovarian
PC-3 prostate = test system: PC-3 prostate
RPMI-8226 leukemia = test system: RPMI-8226 leukemia
SF-268 CNS = test system: SF-268 CNS
SF-295 CNS = test system: SF-295 CNS
SK-MEL-28 melanoma = test system: SK-MEL-28 melanoma
SK-MEL-5 melanoma = test system: SK-MEL-5 melanoma
SK-OV-3 ovarian = test system: SK-OV-3 ovarian
SN12C renal = test system: SN12C renal
SR leukemia = test system: SR leukemia
TK-10 renal = test system: TK-10 renal
U251 CNS = test system: U251 CNS
UO-31 renal = test system: UO-31 renal

`CNc1ccc(C(=O)CC(O)CCC(C)C2OC(=O)CC(O)CC(=O)CC(O)CC(O)CC(O)CC(O)CC3(O)CC(O)C(C(=O)NCCN4CCOCC4)C(CC(OC4OC(C)C(O)C(N)C4O)/C=C/C=C/C=C/C=C\C=C/C=C/C=C/C2C)O3)cc1` (stereo unspecified) was tested, and the TGI (786-0 renal) was greater than 100 µM, the TGI (A498 renal) was 0.8 µM and the TGI (HCT-116 colon) was greater than 100 µM. For the same compound, the TGI (HOP-92 NSCLC) was greater than 100 µM, the TGI (IGROV1 ovarian) was greater than 100 µM and the TGI (KM12 colon) was greater than 100 µM. The TGI (MDA-MB-435) was greater than 100 µM, the TGI (MDA-N) was greater than 100 µM and the TGI (MOLT-4 leukemia) was greater than 100 µM. For the same compound, the TGI (NCI-H226 lung) was greater than 100 µM, the TGI (OVCAR-4 ovarian) was greater than 100 µM and the TGI (OVCAR-8 ovarian) was 36.8 µM. For the same compound, the TGI (RXF 393 renal) was greater than 100 µM, the TGI (SF-539 CNS) was greater than 100 µM and the TGI (SK-MEL-2 melanoma) was 79.1 µM. The TGI (SNB-19 CNS) was greater than 100 µM, the TGI (SNB-75 CNS) was greater than 100 µM and the TGI (SW-620 colon) was greater than 100 µM. For the same compound, the TGI (T-47D breast) was greater than 100 µM, the TGI (UACC-257 melanoma) was 1.94 µM and the TGI (UACC-62 melanoma) was greater than 100 µM.
`O=c1cc(-c2ccccc2)[nH]c2nccn12` gave a TGI (A498 renal) greater than 10 µM, a TGI (A549 NSCLC) greater than 10 µM and a TGI (ACHN renal) greater than 10 µM. For the same compound, the TGI (CAKI-1 renal) was greater than 10 µM, the TGI (CCRF-CEM leukemia) was greater than 10 µM and the TGI (COLO 205 colon) was greater than 10 µM. It also gave a TGI (DU-145 prostate) greater than 10 µM, a TGI (EKVX NSCLC) greater than 10 µM and a TGI (HCC-2998 colon) greater than 10 µM. The TGI (HCT-116 colon) was greater than 10 µM, the TGI (HCT-15 colon) was greater than 10 µM and the TGI (HL-60(TB) leukemia) was greater than 10 µM. The TGI (HOP-62 NSCLC) was greater than 10 µM, the TGI (HS 578T breast) was greater than 10 µM and the TGI (HT29 colon) was greater than 10 µM. The TGI (IGROV1 ovarian) was greater than 10 µM, the TGI (K-562 leukemia) was greater than 10 µM and the TGI (KM12 colon) was greater than 10 µM. The TGI (LOX IMVI melanoma) was greater than 10 µM, the TGI (M14 melanoma) was greater than 10 µM and the TGI (MALME-3M melanoma) was greater than 10 µM. For the same compound, the TGI (MCF7 breast) was greater than 10 µM, the TGI (MDA-MB-231 breast) was greater than 10 µM and the TGI (MDA-MB-435) was greater than 10 µM. It also gave a TGI (MDA-N) greater than 10 µM, a TGI (MOLT-4 leukemia) greater than 10 µM and a TGI (NCI-H226 lung) greater than 10 µM. For the same compound, the TGI (NCI-H23 lung) was greater than 10 µM, the TGI (NCI-H460 lung) was greater than 10 µM and the TGI (NCI-H522 lung) was greater than 10 µM. The TGI (NCI/ADR-RES ovarian) was greater than 10 µM, the TGI (OVCAR-3 ovarian) was greater than 10 µM and the TGI (OVCAR-4 ovarian) was greater than 10 µM. The TGI (OVCAR-5 ovarian) was greater than 10 µM, the TGI (OVCAR-8 ovarian) was greater than 10 µM and the TGI (PC-3 prostate) was greater than 10 µM. It also gave a TGI (RPMI-8226 leukemia) greater than 10 µM, a TGI (RXF 393 renal) greater than 10 µM and a TGI (SF-268 CNS) greater than 10 µM. For the same compound, the TGI (SF-295 CNS) was greater than 10 µM, the TGI (SF-539 CNS) was greater than 10 µM and the TGI (SK-MEL-2 melanoma) was greater than 10 µM. For the same compound, the TGI (SK-MEL-28 melanoma) was greater than 10 µM, the TGI (SK-MEL-5 melanoma) was greater than 10 µM and the TGI (SK-OV-3 ovarian) was greater than 10 µM. For the same compound, the TGI (SN12C renal) was greater than 10 µM, the TGI (SNB-19 CNS) was greater than 10 µM and the TGI (SNB-75 CNS) was greater than 10 µM. For the same compound, the TGI (SR leukemia) was greater than 10 µM, the TGI (SW-620 colon) was greater than 10 µM and the TGI (T-47D breast) was greater than 10 µM. The TGI (TK-10 renal) was greater than 10 µM, the TGI (U251 CNS) was greater than 10 µM and the TGI (UACC-62 melanoma) was greater than 10 µM. For the same compound, the TGI (UO-31 renal) was greater than 10 µM.
